In US11285127B2, “Compositions and methods for lowering triglycerides without raising LDL-C levels in a subject on concomitant statin therapy” (Amarin Pharmaceuticals Ireland Limited, priority 2013, dated 2022):

Test system: patients with fasting triglyceride levels >200 mg/dl and <500 mg/dl despite statin therapy
Assay: 12-week study: lipoprotein particle concentration (VLDL, LDL, HDL; nuclear magnetic resonance)
Format: in vivo, human
Description: Parameters (a)-(z) can be measured in accordance with any clinically acceptable methodology. For example, triglycerides, total cholesterol, HDL-C and fasting blood sugar can be sample from serum and analyzed using standard photometry techniques. VLDL-TG, LDL-C and VLDL-C can be calculated or determined using serum lipoprotein fractionation by preparative ultracentrifugation and subsequent quantitative analysis by refractometry or by analytic ultracentrifugal methodology. Apo A1, Apo B and hsCRP can be determined from serum using standard nephelometry techniques. Lipoprotein (a) can be determined from serum using standard turbidimetric immunoassay techniques. LDL particle number and particle size can be determined using nuclear magnetic resonance (NMR) spectrometry. Remnants lipoproteins and LDL-phospholipase A2 can be determined from EDTA plasma or serum and serum, respectively, using enzymatic immunoseparation techniques. Oxidized LDL, intercellular adhesion molecule-1 and interleukin-2 levels can be determined from serum using standard enzyme immunoassay techniques. These techniques are described in detail in standard textbooks, for example Tietz Fundamentals of Clinical Chemistry, 6th Ed. (Burtis, Ashwood and Borter Eds.), WB Saunders Company.
A multi-center, placebo-controlled, randomized, double-blind, 12-week study was performed to evaluate the efficacy and safety of >96% E-EPA in patients with fasting triglyceride levels >200 mg/dl and <500 mg/dl despite statin therapy (the mean of two qualifying entry values needed to be >185 mg/dl and at least one of the values needed to be >200 mg/dl). The primary objective of the study was to determine the efficacy of >96% E-EPA 2 g daily and 4 g daily, compared to placebo, in lowering fasting TG levels in patients with high risk for cardiovascular disease and with fasting TG levels 200 mg/dl and <500 mg/dl, despite treatment to LDL-C goal on statin therapy.
The secondary objectives of this study were the following: • 1. To determine the safety and tolerability of >96% E-EPA 2 g daily and 4 g daily; • 2. To determine the effect of >96% E-EPA on lipid and apolipoprotein profiles including total cholesterol (TC), non-high-density lipoprotein cholesterol (non-HDL-C), low density lipoprotein cholesterol (LDL-C), high density lipoprotein cholesterol (HDL-C), and […]; • 3. To determine the effect of >96% E-EPA on lipoprotein associated phospholipase A2 (Lp-PLA2) from baseline to week 12; • 4. To determine the effect of >96% E-EPA on low-density lipoprotein (LDL) particle number and size; • 5. To determine the effect of >96% E-EPA on oxidized LDL; • 6. To determine the effect of >96% E-EPA on fasting plasma glucose (FPG) and hemoglobin A1c (HbA1c); • 7. To determine the effect of >96% E-EPA on insulin resistance; • 8. To determine the effect of >96% E-EPA on high-sensitivity C-reactive protein (hsCRP); • 9. To determine the effects of >96% E-EPA 2 g daily and 4 g daily on the incorporation of fatty acids into red blood cell membranes and into plasma phospholipids; • 10. To explore the relationship between baseline fasting TG levels and the reduction in fasting TG levels; and • 11. To explore the relationship between changes of fatty acid concentrations in plasma and red blood cell membranes, and the reduction in fasting TG levels.
The primary efficacy variable for the double-blind treatment period was percent change in TG from baseline to Week 12 endpoint. […]

[1] = IPE 4 g/day (n = 216), 12 weeks
[2] = IPE 4 g/day (n = 216); 12 weeks
[3] = IPE 4 g/day (n = 216); 12 weeks; IDL (23-29 nm)
[4] = IPE 4 g/day (n = 216); 12 weeks; large HDL (9.4-14.0 nm)
[5] = IPE 4 g/day (n = 216); 12 weeks; large LDL (20.5-23.0 nm)
[6] = IPE 4 g/day (n = 216); 12 weeks; large VLDL (>60 nm)
[7] = IPE 4 g/day (n = 216); 12 weeks; medium HDL (8.2-9.4 nm)
[8] = IPE 4 g/day (n = 216); 12 weeks; medium VLDL (42-60 nm)
[9] = IPE 4 g/day (n = 216); 12 weeks; small HDL (7.3-8.2 nm)
[10] = IPE 4 g/day (n = 216); 12 weeks; small LDL (18.0-20.5 nm)
[11] = IPE 4 g/day (n = 216); 12 weeks; small VLDL (29-42 nm)
[12] = IPE 4 g/day vs placebo; 12 weeks; Hodges-Lehmann median

SMILES: CC/C=C\C/C=C\C/C=C\C/C=C\C/C=C\CCCC(=O)OCC [AMR101, ethyl eicosapentaenoate]
- Total VLDL particle concentration, End of Treatment (median) (IPE 2 g/day (n = 222), 12 weeks): 122.4 nmol/L
- IDL particle concentration, Change from Baseline % (median) [1]: 23.7%
- IDL particle concentration, End of Treatment (median) [1]: 63.0 nmol/L
- Large HDL particle concentration, Change from Baseline % (median) [1]: −21.6%
- Large HDL particle concentration, End of Treatment (median) [1]: 1.9 µmol/L
- Large LDL particle concentration, Change from Baseline % (median) [1]: 55.2%
- Large LDL particle concentration, End of Treatment (median) [1]: 172.5 nmol/L
- Large VLDL particle concentration, Change from Baseline % (median) [1]: −41.9%
- Large VLDL particle concentration, End of Treatment (median) [1]: 7.7 nM
- Medium HDL particle concentration, Change from Baseline % (median) [1]: 4.2%
- Medium HDL particle concentration, End of Treatment (median) [1]: 6.9 µmol/L
- Medium VLDL particle concentration, Change from Baseline % (median) [1]: −6.9%
- Medium VLDL particle concentration, End of Treatment (median) [1]: 49.7 nmol/L
- Small HDL particle concentration, Change from Baseline % (median) [1]: −3.9%
- Small HDL particle concentration, End of Treatment (median) [1]: 23.1 µmol/L
- Small LDL particle concentration, Change from Baseline % (median) [1]: −1.1%
- Small LDL particle concentration, End of Treatment (median) [1]: 902.5 nmol/L
- Small VLDL particle concentration, Change from Baseline % (median) [1]: 8.3%
- Small VLDL particle concentration, End of Treatment (median) [1]: 46.8 nmol/L
- Total HDL particle concentration, Change from Baseline % (median) [1]: −4.0%
- Total HDL particle concentration, End of Treatment (median) [1]: 32.6 µmol/L
- Total LDL particle concentration, Change from Baseline % (median) [1]: 3.8%
- Total LDL particle concentration, End of Treatment (median) [1]: 1191 nmol/L
- Total VLDL particle concentration, Change from Baseline % (median) [1]: −2.5%
- Total VLDL particle concentration, End of Treatment (median) [1]: 110.0 nmol/L
- Total HDL particle concentration, Change from Baseline % (median) [2]: −4.0%
- Total HDL particle concentration, End of Treatment (median) [2]: 32.6 μmon/L
- Total LDL particle concentration, Change from Baseline % (median) [2]: 3.8%
- Total LDL particle concentration, End of Treatment (median) [2]: 1191 nmol/L
- Total VLDL particle concentration, Change from Baseline % (median) [2]: −2.5%
- Total VLDL particle concentration, End of Treatment (median) [2]: 110.0 nmol/L
- IDL particle concentration, Change from Baseline % (median) [3]: 23.7%
- IDL particle concentration, End of Treatment (median) [3]: 63.0 nmol/L
- Large HDL particle concentration, Change from Baseline % (median) [4]: −21.6%
- Large HDL particle concentration, End of Treatment (median) [4]: 1.9 μmon
- Large LDL particle concentration, Change from Baseline % (median) [5]: 55.2%
- Large LDL particle concentration, End of Treatment (median) [5]: 172.5 nmol/L
- Large VLDL particle concentration, Change from Baseline % (median) [6]: −41.9%
- Large VLDL particle concentration, End of Treatment (median) [6]: 7.7 nM
- Medium HDL particle concentration, Change from Baseline % (median) [7]: 4.2%
- Medium HDL particle concentration, End of Treatment (median) [7]: 6.9 μmon/L
- Medium VLDL particle concentration, Change from Baseline % (median) [8]: −6.9%
- Medium VLDL particle concentration, End of Treatment (median) [8]: 49.7 nmol/L
- Small HDL particle concentration, Change from Baseline % (median) [9]: −3.9%
- Small HDL particle concentration, End of Treatment (median) [9]: 23.1 μmon/L
- Small LDL particle concentration, Change from Baseline % (median) [10]: −1.1%
- Small LDL particle concentration, End of Treatment (median) [10]: 902.5 nmol/L
- Small VLDL particle concentration, Change from Baseline % (median) [11]: 8.3%
- Small VLDL particle concentration, End of Treatment (median) [11]: 46.8 nmol/L
- Total HDL particle concentration, Median Change From Baseline IPE 4 g/day vs Placebo, % [12]: −7.4%
- Total LDL particle concentration, Median Change From Baseline IPE 4 g/day vs Placebo, % [12]: −7.7%
- Total VLDL particle concentration, Median Change From Baseline IPE 4 g/day vs Placebo, % [12]: −12.2%
- IDL particle concentration, Median Change From Baseline IPE 4 g/day vs Placebo, % (IPE 4 g/day vs placebo; 12 weeks; Hodges-Lehmann median; IDL (23-29 nm)): 10.0%
- Large HDL particle concentration, Median Change From Baseline IPE 4 g/day vs Placebo, % (IPE 4 g/day vs placebo; 12 weeks; Hodges-Lehmann median; large HDL (9.4-14.0 nm)): −31.0%
- Large LDL particle concentration, Median Change From Baseline IPE 4 g/day vs Placebo, % (IPE 4 g/day vs placebo; 12 weeks; Hodges-Lehmann median; large LDL (20.5-23.0 nm)): 34.2%
- Large VLDL particle concentration, Median Change From Baseline IPE 4 g/day vs Placebo, % (IPE 4 g/day vs placebo; 12 weeks; Hodges-Lehmann median; large VLDL (>60 nm)): −46.4%
- Medium HDL particle concentration, Median Change From Baseline IPE 4 g/day vs Placebo, % (IPE 4 g/day vs placebo; 12 weeks; Hodges-Lehmann median; medium HDL (8.2-9.4 nm)): −6.5%
- Medium VLDL particle concentration, Median Change From Baseline IPE 4 g/day vs Placebo, % (IPE 4 g/day vs placebo; 12 weeks; Hodges-Lehmann median; medium VLDL (42-60 nm)): −12.1%
- Small HDL particle concentration, Median Change From Baseline IPE 4 g/day vs Placebo, % (IPE 4 g/day vs placebo; 12 weeks; Hodges-Lehmann median; small HDL (7.3-8.2 nm)): −2.8%
- Small LDL particle concentration, Median Change From Baseline IPE 4 g/day vs Placebo, % (IPE 4 g/day vs placebo; 12 weeks; Hodges-Lehmann median; small LDL (18.0-20.5 nm)): −13.5%
- Small VLDL particle concentration, Median Change From Baseline IPE 4 g/day vs Placebo, % (IPE 4 g/day vs placebo; 12 weeks; Hodges-Lehmann median; small VLDL (29-42 nm)): 2.8%
